Columns and labels:
[1] = tested on: Zucker fa/fa obese rats; experiment: Long-term treatment (12 months) of Zucker fa/fa obese rats with established obesity; protection of renal function; type: in vivo; conditions: for mortality: after 12 months, untreated obese rats 64%
Description: The Zucker obese rat strain fa/fa is characterized by hyperphagia, obesity, dyslipidemia aid type 2 diabetes resulting in the gradual development of a nephropathy.
A group of Zucker fa/fa obese rats that were not treated, but received the same amount of food as the group treated with 10 mg/kg/day per os, was also formed (pair-fed group).

[2] = tested on: obese patients; conditions: clinical studies, cited from earlier work
[3] = Zucker fa/fa obese rats, 3 and 10 mg/kg/day per os for 12 months, vs vehicle
[4] = after 12 months of treatment, 3 and 10 mg/kg/day

Cc1c(C(=O)NN2CCCCC2)nn(-c2ccc(Cl)cc2Cl)c1-c1ccc(Cl)cc1 [rimonabant, N-piperidino-5-(4-chlorophenyl)-1-(2,4-dichlorophenyl)-4-methylpyrazole-3-carboxamide]
mortality ([1]; 3 mg/kg/day per os, p<0.05): 28% | mortality ([1]; 10 mg/kg/day per os, p<0.01): 20% | survival of the Zucker fa/fa obese rats ([1]; 3 and 10 mg/kg/day per os): very significantly prolongs | creatinine clearance [1, 3]: partially restored | increase in plasma creatinine level [1, 3]: decreased in a dose-dependent manner | increase in plasma urea level [1, 3]: decreased in a dose-dependent manner | renal hypertrophy ([1]; Zucker fa/fa obese rats, 12 months treatment, vs vehicle): significantly reduced | contractility [1, 4]: remain unchanged | heart rate [1, 4]: remain unchanged | left ventricular pressure [1, 4]: remain unchanged | mean arterial pressure [1, 4]: remain unchanged | protienuria ([1]; chronic treatment, 3 and 10 mg/kg/day per os): significantly delays | body weight of obese patients ([2]; obese patients): reduces | food intake [2]: acts on food intake in quantitative and qualitative terms

From patent US7622488B2, “Use of a pyrazole derivative for preparing medicines useful for treating renal diseases” (sanofi-aventis, priority 2005, dated 2009)
